Results reported in ChEMBL document CHEMBL5518237, “Design of Novel 2-Phenylquinazolin-4-amines as Selective CYP1B1 Inhibitors for Overcoming Paclitaxel Resistance in A549 Cells” (J Med Chem, 2024).

Assays:
Type in all cases: ADME
CYP1B1 [1] = biological target: T1, CYP1B1 (Homo sapiens, UniProt Q16678); assay: Inhibition of human recombinant CYP1B1 using 7-ethoxyresorufin as substrate at 0.01 uM preincubated with enzyme for 5 mins followed by fluorescent substrate and NADPH addition and measured after 35 mins by EROD assay; conditions: recombinant CYP1B1, probe 7-ethoxyresorufin, time 40 min
T1 sequence (Q16678 whole entry): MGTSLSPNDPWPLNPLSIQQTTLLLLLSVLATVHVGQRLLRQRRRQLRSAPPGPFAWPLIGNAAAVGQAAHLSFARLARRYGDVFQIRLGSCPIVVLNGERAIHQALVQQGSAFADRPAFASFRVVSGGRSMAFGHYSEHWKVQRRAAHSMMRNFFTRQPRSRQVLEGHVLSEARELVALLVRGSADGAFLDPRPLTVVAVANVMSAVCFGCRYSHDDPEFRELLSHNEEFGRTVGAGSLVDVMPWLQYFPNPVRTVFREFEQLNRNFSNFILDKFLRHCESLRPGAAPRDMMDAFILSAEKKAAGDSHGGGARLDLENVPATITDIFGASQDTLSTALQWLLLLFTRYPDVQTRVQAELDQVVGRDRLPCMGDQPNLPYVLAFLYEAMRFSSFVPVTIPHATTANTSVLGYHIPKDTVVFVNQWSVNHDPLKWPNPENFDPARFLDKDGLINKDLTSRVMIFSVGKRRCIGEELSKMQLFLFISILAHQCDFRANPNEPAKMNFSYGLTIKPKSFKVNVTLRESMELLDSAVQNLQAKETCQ

CYP1B1 [2] = biological target: T1, CYP1B1; assay: Inhibition of human recombinant CYP1B1 using 7-ethoxyresorufin as substrate at 1 uM preincubated with enzyme for 5 mins followed by fluorescent substrate and NADPH addition and measured after 35 mins by EROD assay; conditions: recombinant CYP1B1, probe 7-ethoxyresorufin, time 40 min
Cytochrome P450 1A1 = biological target: T2, Cytochrome P450 1A1 (Homo sapiens, UniProt P04798); assay: Inhibition of human recombinant CYP1A1 using 7-ethoxyresorufin as substrate preincubated with enzyme for 5 mins followed by fluorescent substrate and NADPH addition and measured after 15 mins by EROD assay
T2 sequence (P04798 whole entry): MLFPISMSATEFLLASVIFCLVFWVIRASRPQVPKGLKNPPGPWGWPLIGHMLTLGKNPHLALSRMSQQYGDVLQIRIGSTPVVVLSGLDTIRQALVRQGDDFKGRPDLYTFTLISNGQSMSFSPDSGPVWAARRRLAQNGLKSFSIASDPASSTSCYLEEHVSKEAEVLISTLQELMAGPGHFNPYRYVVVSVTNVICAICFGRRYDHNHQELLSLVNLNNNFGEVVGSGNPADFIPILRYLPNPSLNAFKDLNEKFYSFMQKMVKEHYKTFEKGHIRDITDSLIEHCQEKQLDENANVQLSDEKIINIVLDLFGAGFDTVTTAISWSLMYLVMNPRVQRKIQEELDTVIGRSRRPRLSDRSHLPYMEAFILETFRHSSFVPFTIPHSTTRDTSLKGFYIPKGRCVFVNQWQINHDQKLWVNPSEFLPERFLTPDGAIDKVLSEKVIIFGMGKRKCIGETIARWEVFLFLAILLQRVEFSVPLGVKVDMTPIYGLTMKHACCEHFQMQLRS

CYP1A1 versus CYP1B1 = assay: Selectivity ratio of IC50 for Inhibition of human recombinant CYP1A1 to IC50 for Inhibition of human recombinant CYP1B1; conditions: recombinant CYP1A1 and recombinant CYP1B1, read-out: Ratio IC50
Cytochrome P450 1A2 = biological target: T3, Cytochrome P450 1A2 (Homo sapiens, UniProt P05177); assay: Inhibition of human recombinant CYP1A2 using 7-ethoxyresorufin as substrate preincubated with enzyme for 5 mins followed by fluorescent substrate and NADPH addition and measured after 50 mins by EROD assay
T3 sequence (P05177 whole entry): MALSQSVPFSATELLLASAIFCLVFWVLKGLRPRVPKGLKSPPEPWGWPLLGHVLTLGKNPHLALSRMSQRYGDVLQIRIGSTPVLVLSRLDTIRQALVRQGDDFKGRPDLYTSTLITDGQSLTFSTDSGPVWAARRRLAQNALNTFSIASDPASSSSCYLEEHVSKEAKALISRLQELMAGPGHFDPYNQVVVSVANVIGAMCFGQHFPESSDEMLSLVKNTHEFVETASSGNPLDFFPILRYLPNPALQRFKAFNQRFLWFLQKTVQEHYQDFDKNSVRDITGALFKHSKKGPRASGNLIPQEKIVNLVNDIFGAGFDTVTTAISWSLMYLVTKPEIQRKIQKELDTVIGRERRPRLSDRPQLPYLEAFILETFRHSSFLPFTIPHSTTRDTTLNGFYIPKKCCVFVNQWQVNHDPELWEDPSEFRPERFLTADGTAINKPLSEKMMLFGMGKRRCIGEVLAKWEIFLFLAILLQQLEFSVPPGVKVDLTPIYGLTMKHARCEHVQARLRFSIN

CYP1A2 versus CYP1B1 = assay: Selectivity ratio of IC50 for Inhibition of human recombinant CYP1A2 to IC50 for Inhibition of human recombinant CYP1B1; conditions: recombinant CYP1A2 and recombinant CYP1B1, read-out: Ratio IC50
Cytochrome P450 1B1 = biological target: T4, Cytochrome P450 1B1 (Homo sapiens, UniProt Q16678); assay: Inhibition of human recombinant CYP1B1 using 7-ethoxyresorufin as substrate preincubated with enzyme for 5 mins followed by fluorescent substrate and NADPH addition and measured after 35 mins by EROD assay
T4 sequence (Q16678 whole entry): T1 sequence (Q16678 whole entry)

| Structure (SMILES) | inhibition at 35 min, 0.01 µM (CYP1B1 [1]) [%] | inhibition at 35 min, 1 µM (CYP1B1 [2]) [%] | other results |
| --- | --- | --- | --- |
| C#CCOc1ccc(-c2nc(N)c3ccccc3n2)cc1 | 74.4 | 96 | – |
| O=c1[nH]c(-c2ccc(Br)cc2)nc2ccccc12 | 69.5 | 94.5 | – |
| COc1cccc(-c2nc(N)c3ccc4ccccc4c3n2)c1 | 3.87 | 94.8 | – |
| Cc1ccc(-c2nc(N)c3ccc4ccccc4c3n2)cc1 | -13.1 | 75.3 | – |
| COc1ccc(-c2nc(N)c3ccc4ccccc4c3n2)cc1 | 44.2 | 95.2 | – |
| Nc1nc(-c2ccc(F)cc2)nc2c1ccc1ccccc12 | 11 | 95 | – |
| NCCNc1nc(-c2ccc(I)cc2)nc2ccccc12 | -6.11 | 39.5 | – |
| Nc1nc(-c2cccc(Cl)c2)nc2c1ccc1ccccc12 | 14 | 94.2 | – |
| Nc1nc(-c2ccc(Cl)cc2)nc2c1ccc1ccccc12 | 69.4 | 95.4 | – |
| Nc1nc(-c2cccc(F)c2)nc2c1ccc1ccccc12 | 10.5 | 94.5 | – |
| Nc1nc(-c2ccc(I)cc2)nc2c1ccc1ccccc12 | 63.1 | 88.5 | – |
| Ic1ccc(-c2nc(N3CCCCC3)c3ccccc3n2)cc1 | 13.8 | 91.1 | – |
| Nc1nc(-c2cccc(Cl)c2)nc2ccccc12 | 25.8 | 74.4 | – |
| Nc1nc(-c2ccc(Cl)nc2)nc2ccccc12 | 6.96 | 68 | – |
| Nc1nc(-c2cccc(C(=O)O)c2)nc2ccccc12 | 22.4 | 10.2 | – |
| Nc1nc(-c2ccc(Cl)cc2)nc2ccccc12 | 68.4 | 96 | – |
| Nc1nc(-c2ccc(Br)cc2)nc2c1ccc1ccccc12 | 80.6 | 95.4 | IC50 (Cytochrome P450 1A1): 28.1 nM; selectivity ratio (CYP1A1 versus CYP1B1): 9.16; IC50 (Cytochrome P450 1A2): 784 nM; selectivity ratio (CYP1A2 versus CYP1B1): 256; IC50 (Cytochrome P450 1B1): 3.07 nM |
| COc1ccc(-c2nc(N)c3ccccc3n2)cc1 | 84.1 | 91.8 | IC50 (Cytochrome P450 1A1): 248 nM; selectivity ratio (CYP1A1 versus CYP1B1): 99.9; IC50 (Cytochrome P450 1A2): 5840 nM; selectivity ratio (CYP1A2 versus CYP1B1): 2360; IC50 (Cytochrome P450 1B1): 2.48 nM |
| COC(=O)c1ccc(-c2nc(N)c3ccccc3n2)cc1 | 15.9 | 92.7 | – |
| Nc1nc(-c2ccc(C(=O)O)cc2)nc2ccccc12 | 20.2 | -2.32 | – |
| Ic1ccc(-c2nc(Nc3ccccc3)c3ccccc3n2)cc1 | 7.25 | 60.4 | – |

| Structure (SMILES) | inhibition at 35 min, 0.01 µM (CYP1B1 [1]) [%] | inhibition at 35 min, 1 µM (CYP1B1 [2]) [%] | other results |
| --- | --- | --- | --- |
| CC(C)Nc1nc(-c2ccc(I)cc2)nc2ccccc12 | 32.8 | 95.3 | – |
| Nc1nc(-c2ccccc2)nc2ccccc12 | -13.5 | 65.5 | – |
| Cc1ccc(-c2nc(N)c3ccccc3n2)cc1 | 89.6 | 97.8 | IC50 (Cytochrome P450 1A1): 263 nM; selectivity ratio (CYP1A1 versus CYP1B1): 156; IC50 (Cytochrome P450 1A2): 5340 nM; selectivity ratio (CYP1A2 versus CYP1B1): 3160; IC50 (Cytochrome P450 1B1): 1.69 nM |
| Nc1nc(-c2cccc(F)c2)nc2ccccc12 | -1.45 | 78.9 | – |
| Nc1nc(-c2ccccc2)nc2c1ccc1ccccc12 | 6.15 | 93.5 | – |
| CN(C)c1nc(-c2ccc(I)cc2)nc2ccccc12 | 65.4 | 95.5 | – |
| Nc1nc(-c2ccc(F)cc2)nc2ccccc12 | 3.73 | 80.7 | – |
| Ic1ccc(-c2nc(N3CCCC3)c3ccccc3n2)cc1 | 39.8 | 94.9 | – |
| Nc1nc(-c2ccc(Br)nc2)nc2ccccc12 | 12.8 | 73.4 | – |
| CCCCNc1nc(-c2ccc(I)cc2)nc2ccccc12 | 21.8 | 86.4 | – |
| COc1cccc(-c2nc(N)c3ccccc3n2)c1 | 10.1 | 91.7 | – |
| Ic1ccc(-c2nc(NCc3ccccc3)c3ccccc3n2)cc1 | 2 | 91.2 | – |
| Nc1nc(-c2cccc(Br)c2)nc2c1ccc1ccccc12 | -12.8 | 93.8 | – |
| Nc1nc(-c2cccc(Br)c2)nc2ccccc12 | 13.2 | 55.4 | – |
| COC(=O)c1cccc(-c2nc(N)c3ccccc3n2)c1 | 28.4 | 1.98 | – |
| Ic1ccc(-c2nc(N3CCOCC3)c3ccccc3n2)cc1 | 51.8 | 93.8 | – |
| Nc1nc(-c2cccc(I)c2)nc2ccccc12 | 66.4 | 96.7 | – |
| OCCNc1nc(-c2ccc(I)cc2)nc2ccccc12 | 68.5 | 96.5 | – |
| Nc1nc(-c2ccc(Oc3ccc(Cl)cc3Cl)cc2)nc2ccccc12 | 1.94 | 27.6 | – |
| CCCNc1nc(-c2ccc(I)cc2)nc2ccccc12 | 67.8 | 94.2 | – |
